Consider three substances from paper PMC6349357, “Computational and experimental analysis of bioactive peptide linear motifs in the integrin adhesome” (PLoS ONE, 2019).

One assay has as its system TRAP-activated platelets. Description: Inhibition of TRAP-induced platelet aggregation after pre-incubation with peptide. It counts as cell-based, human (healthy volunteers). The note with it: S3 Table, aggregation after TRAP, n=3. Here is the method:
(§1) Blood was drawn from healthy volunteers into a syringe containing a final volume of 15% Acid Citrate Dextrose (ACD). The blood/ACD mixture was then aliquoted into 15 ml Cellstar tubes, at volumes of 5ml per tube, and centrifuged at 150 rcf for 10 minutes to obtain platelet rich plasma (PRP). PRP was then transferred to a 50ml tube using a pipette. The pH was then adjusted to 6.5. Prostaglandin (PGE1) was then added with a final concentration of 1μM. The PRP was then centrifuged at 750 rcf. After centrifugation the platelet poor plasma (PPP) was discarded and the pellet was resuspended in buffer A (6 mM dextrose, 130 mM NaCl, 9 mM NaHCO3, 10 mM sodium citrate, 10 mM Tris base, 3 mM KCl, 0.81 mM KH2PO4 and 0.9 mM MgCl26H2O, pH 7.4). A platelet concentration of 3x10^5/μl or 1x10^6/μl was obtained by dilution depending on the experiment in which they were used. Platelets were left to rest for 45 minutes and supplemented with 1.8mM calcium chloride prior to use.
(§2) A platelet concentration of 3x10^5 /μl was used when performing standard aggregations and a concentration of 1x10^6 /μl was used for sample preparation for western blot analysis. The extent of platelet aggregation was measured by quantifying the optical density of the samples using the Bio-Data PAP-8 aggregometer (platelet aggregation profiler, Horsham, PA, USA). A temperature of 37°C was maintained and samples were stirred using magnets spinning at 1100 rpm. 200 μl of washed platelets was added to each aggregation tube. Different volumes of buffer, peptide and TRAP were added to achieve the desired concentrations. Peptide/buffer was added to each well after two minutes. TRAP, with a final concentration depending on the experiment, was added 6 minutes later and data was collected for an additional 7 minutes.

For a further assay, the system named is resting platelets. Briefly: Platelet aggregation induced by peptide in resting washed platelets (activation). It counts as cell-based, human (healthy volunteers). The note with it: S3 Table, n=3, unit assumed; for Activation, 5μM: peptide 5 μM; for Activation, 20μM: peptide 20 μM. How it is done: as §1, §2

For the substance “pal-KVGFFKR-RMKKKDEGSYD [B17p ITGA2b-JM2 U SDC4-JM, palmitylated chimeric peptide]”, the “Platelet aggregation remaining after TRAP (low = inhibition)” value in the assay on TRAP-activated platelets (peptide 5 μM) is recorded as 66. Moreover, the “Platelet aggregation remaining after TRAP (low = inhibition)” value with TRAP-activated platelets (peptide 20 μM) was determined as 11. In the assay with resting platelets, this substance gave an Activation, 5μM of 1% and an Activation, 20μM of 2%.
For “pal-KVGFFKR-TLELDRLMASLS [B20p ITGA2b-JM U TGFB1I1-LD, palmitylated chimeric peptide]” the same measures were 71, 66, 2% and 2%.
For “pal-KVGFFKR-WEQLLTTIARTINEVENQI [B12p ITGA2b-JM U ACTN1-VBS, palmitylated chimeric peptide]”, in that order: 74, 66, 1% and 7%.
